The record followed here is the METLIN SMRT retention time set (Domingo-Almenara et al. 2019).

The nature of this data set: gradient 5% acetonitrile 3 min, to 50% in 2 min, to 85% in 15 min, held 3 min, 100 µL/min. The note with it: column: Zorbax Extend-C18 2.1 x 50 mm; eluents: water / acetonitrile, 0.1% formic acid. In outline: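 Each retention time is based on an adduct peak selected computationally and verified by manual inspection. Measurements used HPLC–quadrupole time-of-flight mass spectrometry in positive and negative ionization mode on mixtures of ~100 pure standards. Chromatography ran on a Zorbax Extend-C18 column (2.1 × 50 mm, 1.8 μm) at 100 μL/min with water and acetonitrile, each containing 0.1% formic acid, and dead and dwell volumes of 40 μL and 900 μL.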
`CN1CCN(S(=O)(=O)c2ccc(C3CCCCC3)cc2)CC1` registered an RP-LC retention time of 616 s. The result for `O=C(CSc1nnc(-c2ccccc2F)o1)N1CCCc2ccccc21` reads 872 s. The result for `CCCCNC(=O)Cc1c(C)nn(-c2nc(-c3ccc(F)cc3)cs2)c1C` reads 1070 s; that for `Cc1ccc(CNC(=O)c2nnc(-c3ccc(S(=O)(=O)N(C)C)cc3)o2)cc1C`, 947 s; that for `Cc1coc2cc3oc(=O)c(CC(=O)N[C@H](Cc4c[nH]c5ccccc45)C(=O)O)c(C)c3cc12`, 772 s.

The molecule `CCN1C(=O)c2cccnc2Sc2cc(NC(=O)Cc3cccc(F)c3)ccc21` had an RP-LC retention time of 826 s. On to `COc1ccc(-c2cn3c(CC(=O)N4c5ccccc5CC4C)csc3n2)cc1OC` (centres undefined), for which the RP-LC retention time was found to be 797 s. Consider `CCOc1ccc(NC(=O)NC(C)C(=O)N2CCc3ccccc32)cc1` (centres undefined), for which the RP-LC retention time came out at 855 s. Molecule `Cc1cccc(CNC(=O)c2ccc3c(c2)nc2n3CCN(C3CCCCC3)C2=O)c1` showed an RP-LC retention time of 824 s. The result for `Cc1ccc(N2CC(c3noc(-c4cccc(Cl)c4)n3)CC2=O)cc1` (centres undefined) reads 1090 s; that for `CCOc1ccc2ncc(S(=O)(=O)c3ccc(C)c(C)c3)c(N3CCN(C)CC3)c2c1`, 658 s; that for `Cc1sc2cc(C(=O)NCCN(C)C)[nH]c2c1CN1CCCCC1`, 536 s. As for `Cc1cc(C)n2nc(SCC(=O)NCc3ccccc3)nc2n1`, the figure is 705 s; as for `Cc1nnc(Cc2ccccc2)c2n[nH]c(C)c12`, 647 s; as for `COC(=O)C1=C(C)N(C2CCCC2)C(=O)C1(NC(=O)CCc1ccccc1)C(F)(F)F` (centres undefined), 1080 s. The result for `O=C(C1=NN(Cc2cccc(Cl)c2)c2ccccc2S1(=O)=O)N1CCOCC1` reads 856 s; that for `O=C1NC(c2cccc([N+](=O)[O-])c2)=CCN1c1ccccc1O`, 837 s; that for `O=S1(=O)C[C@H](N2CCN(c3cccc(Cl)c3)CC2)[C@@H](S(=O)(=O)c2ccc(F)cc2)C1`, 1040 s. In the case of `CCOC(=O)c1c(C)[nH]c(C(=O)N2CCCC(C(=O)NCCCN3CCCC3)C2)c1C` (centres undefined), the RP-LC retention time worked out at 589 s. The result for `Cc1ccc2cc(CCC(=O)N3CCN(C(=O)c4ccco4)CC3)c(=O)[nH]c2c1` reads 655 s; that for `CCCn1c(=O)c(C)nc2cc(-c3noc(-c4cccc(N(C)C)c4)n3)ccc21`, 717 s. In the case of `CCC(CC)C(=O)N1CCc2c(c(C(=O)N3CCCC(C(=O)Nc4ccccc4)C3)nn2C)C1` (centres undefined), the RP-LC retention time stood at 761 s. The result for `O=C(NCC1CC1)C1CCN(C(=O)c2ncn3c2COC(c2ccc(F)cc2)C3)CC1` (centres undefined) reads 699 s. The result for `Cc1cc(=O)n(CC(=O)Nc2ccc(Br)cc2F)c(N2CCc3ccccc3C2)n1` reads 953 s; that for `COc1ccc(-c2cc3c4nnc(CCC(=O)NCc5ccccc5C(F)(F)F)n4ccn3n2)cc1`, 822 s; that for `Cc1ccc(S(=O)(=O)n2nc(-c3ccc(C)c(C)c3)nc2N)cc1`, 1000 s. In the case of `COc1cccc(CN2CCC([C@H]3[C@@H](OC)C(=O)N3C(C)C)CC2)n1`, the RP-LC retention time worked out at 602 s. Molecule `Cc1ccc(CNC(=O)c2nc(-c3oc4c(C)cccc4c3C)no2)o1` gave an RP-LC retention time of 1080 s. The result for `O=C(NCCCn1c(C(F)(F)F)nc2cccnc21)Nc1ccccc1` reads 776 s; that for `COc1cccc(-c2noc(NC3CC3)n2)c1`, 787 s; that for `CCCN(CCC)S(=O)(=O)c1cccc(-c2cn3cccc(C)c3n2)c1`, 774 s. For the molecule `O=C(Cn1ncc2c(c1=O)N(C1CC1)C(=O)CS2)NCCc1ccc(Cl)cc1`, the RP-LC retention time came to 755 s. As for `N#Cc1cccc(C(=O)N2CCCn3nc(-c4cccs4)cc3C2)c1`, the figure is 720 s; as for `Cc1ncc2c(n1)C[C@@H]1CC[C@H]2N1C(=O)COc1ccccc1`, 669 s. As for `O=C(NCc1ccc(F)cc1Cl)C1CCCN(c2ncnc3nn(-c4ccc(F)cc4)cc23)C1` (centres undefined), the figure is 723 s; as for `Cc1ccc(S(=O)(=O)N2C[C@@H](F)C[C@H]2C(=O)N2CCc3ccccc3C2)cc1C`, 973 s.

`Cc1csc(-c2cc(S(=O)(=O)NCCN3CCC(C)CC3)cn2CC(=O)N2CCCCC2)n1` came in with an RP-LC retention time of 679 s.

On to `CC(=O)N[C@@H]1CCNC[C@@H]1c1nc(-c2ccccc2)no1`, for which the RP-LC retention time is 568 s. The result for `CCCN1C(=O)COc2ccc(-c3noc(-c4ccc(OC)c(OC)c4)n3)cc21` reads 1110 s; that for `CC(=O)N1CCN(c2nc3c(s2)CC(C(=O)Nc2cccc4c2CCCC4)CC3)CC1` (centres undefined), 632 s. The molecule `COc1ccc(NS(=O)(=O)c2cc3n(c2)CCCN(C)C3=O)cc1Cl` came in with an RP-LC retention time of 696 s.

The molecule `Cc1nc(C(=O)Nc2ccc(F)cc2)c(C)o1` had an RP-LC retention time of 848 s. Turning to `Cc1cc(=O)n(CC(=O)Nc2ccccc2C)c(N)n1`, the RP-LC retention time worked out at 590 s. As for `O=C(c1ccc(N2C[C@H]3C[C@H](C2)[C@H]2CCCC(=O)N2C3)nc1)N1CCN(c2ncccn2)CC1`, the figure is 567 s. The result for `Cc1noc(C2CN(C(=O)c3n[nH]c4ccccc34)CC23CCOCC3)n1` (centres undefined) reads 665 s; that for `COC(=O)c1ccccc1S(=O)(=O)N1CCc2c(c(-c3nnc(-c4ccccc4F)o3)nn2C)C1`, 873 s. The result for `CC(=O)NS(=O)(=O)c1ccc2sc(C)nc2c1` reads 700 s; that for `O=c1n(Cc2ccc(Cl)cc2)nc2ccc(S(=O)(=O)N3CCCC3)cn12`, 906 s; that for `COCCn1c(C2CCN(S(=O)(=O)c3ccc(Cl)cc3)C2)nc2cccnc21` (centres undefined), 806 s.

As for `Cc1ccc(NC(=O)N2CC(c3nc(C(C)C)nn3C)C2)cc1C`, the RP-LC retention time is 710 s. `CCc1ccc(C(C)NS(=O)(=O)c2cc3c(s2)CCN(C(=O)C2CCC2)C3)cc1` (centres undefined) registered an RP-LC retention time of 1020 s. The result for `O=c1n(Cc2ccc(F)cc2Cl)nc2c(S(=O)(=O)N3CCCC3)cccn12` reads 1020 s; that for `O=C(Cc1ccc(F)cc1)Nc1ccc(-c2ccc3nncn3n2)cc1`, 676 s; that for `O=C(Nc1ccccc1NC(=O)c1ccccc1C(F)(F)F)c1ccsc1`, 830 s. As for `COC(=O)c1c(C)c(C(=O)C(C)N(Cc2ccc(F)cc2)C(=O)C2CCC2)c(C)n1C` (centres undefined), the figure is 1040 s.

For the molecule `Cc1c2ccncc2c(C)c2c1sc1ccccc12`, the RP-LC retention time turned out to be 714 s. Turning to `N#Cc1ccc(CN2CCC(F)(F)C(COCc3cccnc3)C2)cc1` (centres undefined), the RP-LC retention time is 575 s. As for `CCC(=O)N1CCC([C@H]2[C@@H](OC)C(=O)N2C(C)C)CC1`, the figure is 644 s; as for `Cc1ccc(NC(=O)C(=O)NCCCN2CCOCC2)cc1F`, 573 s; as for `COc1ccc(Cl)cc1S(=O)(=O)N1CCCC(Cn2cnc3cccnc32)C1` (centres undefined), 708 s. As for `Cc1cc(=O)n(CC(=O)NCc2ccc(Cl)cc2)c(N)n1`, the figure is 613 s.

`CCc1cc(=O)n(CC(=O)Nc2ccc(C)cc2C)c(N)n1` gave an RP-LC retention time of 631 s. The result for `Cc1noc(-c2ccc(OC3CN(S(=O)(=O)c4cn(C)cn4)C3)cc2)n1` reads 796 s.

Consider `O=S(=O)(c1cccc(Cl)c1)c1nnn2c1nc(N1CCCC1)c1sccc12`, for which the RP-LC retention time came to 925 s. As for `Cc1ccc(-c2nnc(-c3nn(C)c4c3CN(S(=O)(=O)c3ccc(C(C)C)cc3)CC4)o2)cc1`, the figure is 1160 s. As for `Cc1ccsc1C(=O)N1CCC(C2CCN(S(C)(=O)=O)CC2)C1` (centres undefined), the figure is 626 s; as for `COc1cc(NS(=O)(=O)c2ccc(-c3nnc(C4CCC4)o3)o2)cc(OC)c1`, 886 s. Consider `CCc1sc(NC(=O)CCc2ccccc2)nc1-c1ccccc1`, for which the RP-LC retention time was 1150 s. Consider `CCN1C(=O)c2cc(C(=O)Nc3ccc(C)cc3)nn2CC1(C)C(=O)NC1CCCC1` (centres undefined), for which the RP-LC retention time amounted to 807 s.

`CCNC(=O)N1CCCC(c2cccc(C(=O)NCCC3=CCCCC3)c2)C1` (centres undefined) came in with an RP-LC retention time of 906 s. The result for `CCOc1ccc(-c2noc(Cn3c(=O)n(-c4ccc(F)cc4)c(=O)c4sccc43)n2)cc1OC` reads 940 s; that for `O=C(Cc1ccc(Cl)cc1)N1CCN(c2nc(CN3CCOCC3)cs2)CC1`, 642 s; that for `CCn1c(C)c(C(=O)CN(CC2CCCO2)C(=O)c2cccc(F)c2)c(C)c1C(=O)OC` (centres undefined), 896 s. As for `O=C(c1cc(-c2cccnc2)n[nH]1)N1CCN(C(=O)C2CCC2)CC1`, the figure is 581 s; as for `O=C(CSC1CCc2ccccc2NC1=O)NCc1ccc(Cl)cc1Cl` (centres undefined), 868 s. As for `COC(=O)c1ccc(Cl)cc1NC(=O)c1cc2ccccc2o1`, the figure is 1280 s; as for `Cc1nc2ccccc2c(=O)n1Cc1noc(Cc2ccc(Br)cc2)n1`, 917 s; as for `CC(C)N(CC[C@H](c1ccccc1)c1cc(CO)ccc1O)C(C)C`, 678 s. `CC1CCN(S(=O)(=O)c2cc(C(=O)N3CCN(c4ccc(F)cc4)CC3)n(C)c2)CC1` yielded an RP-LC retention time of 1010 s.
